Measured values from US7989464B2, “mGluR1 antagonists as therapeutic agents” (Schering Corporation, priority 2004, dated 2011).

molecular target: T1, hmGluR1 receptor (Homo sapiens, UniProt Q13255); test: IC50 determination: intracellular calcium mobilization (FLIPR) upon Quisqualate stimulation in CHO cells stably expressing hmGluR1; assay type: cell-based; conditions: against Quisqualate 1 μM (EC80), FLIPR calcium mobilization, read-out: IC50 Class
T1 construct: expressed in transfected cells
Procedure, shortened: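 CHO cells stably expressing hmGluR1 were kept overnight in DMEM high glucose with GPT and 1 mM pyruvate, then loaded 2 h with Calcium 3 dye.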

T1 sequence (Q13255 19-1194): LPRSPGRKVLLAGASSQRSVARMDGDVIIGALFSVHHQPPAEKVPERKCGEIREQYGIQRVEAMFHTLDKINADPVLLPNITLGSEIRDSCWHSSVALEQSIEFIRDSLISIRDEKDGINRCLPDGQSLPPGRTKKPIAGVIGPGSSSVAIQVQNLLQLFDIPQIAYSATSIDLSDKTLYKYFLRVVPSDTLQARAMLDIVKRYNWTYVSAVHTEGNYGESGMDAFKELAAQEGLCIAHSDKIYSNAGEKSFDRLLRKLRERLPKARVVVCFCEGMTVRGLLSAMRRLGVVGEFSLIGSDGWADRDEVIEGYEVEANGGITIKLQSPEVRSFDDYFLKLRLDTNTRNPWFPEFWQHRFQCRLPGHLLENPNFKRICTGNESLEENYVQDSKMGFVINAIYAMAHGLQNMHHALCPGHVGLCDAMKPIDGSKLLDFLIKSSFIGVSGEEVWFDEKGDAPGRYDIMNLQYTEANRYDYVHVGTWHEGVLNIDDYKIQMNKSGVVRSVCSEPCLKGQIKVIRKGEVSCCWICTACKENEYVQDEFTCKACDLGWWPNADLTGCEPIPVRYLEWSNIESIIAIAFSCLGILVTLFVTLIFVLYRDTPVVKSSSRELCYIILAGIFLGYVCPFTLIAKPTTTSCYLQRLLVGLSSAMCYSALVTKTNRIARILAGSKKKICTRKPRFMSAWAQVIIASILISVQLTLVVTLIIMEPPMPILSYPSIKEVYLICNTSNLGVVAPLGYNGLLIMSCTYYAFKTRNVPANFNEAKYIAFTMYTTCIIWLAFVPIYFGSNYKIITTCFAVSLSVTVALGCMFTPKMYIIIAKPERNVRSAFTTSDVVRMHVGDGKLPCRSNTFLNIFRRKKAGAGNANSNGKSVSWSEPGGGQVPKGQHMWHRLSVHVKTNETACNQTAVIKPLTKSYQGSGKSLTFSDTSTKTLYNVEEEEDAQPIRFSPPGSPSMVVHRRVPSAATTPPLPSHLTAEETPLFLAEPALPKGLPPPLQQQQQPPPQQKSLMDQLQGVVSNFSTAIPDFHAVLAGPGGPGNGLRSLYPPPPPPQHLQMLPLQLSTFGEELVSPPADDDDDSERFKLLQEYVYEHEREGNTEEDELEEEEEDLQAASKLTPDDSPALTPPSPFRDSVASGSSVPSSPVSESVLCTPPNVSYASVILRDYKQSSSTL

Structure (SMILES) | IC50
CN(C)c1ncnc2sc3c(=O)n(-c4ccc(Br)cc4F)cnc3c12 [95AR] | < 50 nM
C#CC(CC)(CC)Nc1ccnc2sc3c(=O)n(-c4ccc(C)cc4)cnc3c12 [28EU] | 150 to 1000 nM
C#CCN(C)c1ccnc2sc3c(=O)n(-c4ccc(OC)cc4)cnc3c12 [28DU] | < 50 nM
Cc1ccc(-n2cnc3c(sc4ncc(Br)c(N)c43)c2=O)cc1 [173A] | < 50 nM
COc1ccc(-n2cnc3c(sc4nccc(N5CC(O)C5)c43)c2=O)cc1 [28DJ] | 50 to 150 nM
COCCCNc1ccnc2sc3c(=O)n(-c4ccc(C)cc4)cnc3c12 [28CZ] | < 50 nM
CCNc1ccnc2sc3c(=O)n(-c4ccc5occc5c4)cnc3c12 [28BG] | < 50 nM
CN(C)c1ncnc2sc3c(=O)n(-c4ccc(C5CC5)cc4)cnc3c12 [137D] | < 50 nM
CN(CCO)c1ccnc2sc3c(=O)n(-c4ccc(Br)cc4)cnc3c12 [28HI] | < 50 nM
COc1ccc(-n2cnc3c(sc4nc(N)cc(N(C)C)c43)c2=O)cc1 [59F] | < 50 nM
C=CCNc1ncnc2sc3c(=O)n(-c4ccc5scnc5c4)cnc3c12 [95BM] | < 50 nM
COc1ccc(-n2cnc3c(sc4ncnc(Nc5cccc(C#N)c5)c43)c2=O)cc1 [190I] | 150 to 1000 nM
Cc1ccc(-n2cnc3c(sc4nccc(N5CCOCC5)c43)c2=O)cc1 [28CW] | > 1000 nM
C#CCNc1ncnc2sc3c(=O)n(-c4ccc5c(c4)OCCO5)cnc3c12 [95EN] | 50 to 150 nM
Cc1ccc(-n2cnc3c(sc4nccc(N[C@@H](C)CO)c43)c2=O)cc1 [28DD] | 150 to 1000 nM
O=c1c2sc3nccc(Cl)c3c2ncn1-c1ccc(Cl)cc1 [57E] | 150 to 1000 nM
CNc1ncnc2sc3c(=O)n(-c4ccc5scnc5c4)cnc3c12 [95BG] | < 50 nM
C=C(C)CNc1ncnc2sc3c(=O)n(-c4ccc(OC)cc4)cnc3c12 [95FT] | < 50 nM
O=c1c2sc3nccc(NCCO)c3c2ncn1-c1ccc(F)cc1 [28GC] | 50 to 150 nM

Structure (SMILES) | IC50
C#CCNc1nc(C)nc2sc3c(=O)n(-c4ccc(OC)cc4)cnc3c12 [95FM] | 50 to 150 nM
CN(C)c1cccc2sc3c(=O)n(-c4ccc(F)cc4)cnc3c12 [103N] | 150 to 1000 nM
NC(=O)CNc1ccnc2sc3c(=O)n(-c4ccc(F)cc4)cnc3c12 [28GG] | 150 to 1000 nM
C=CCNc1ccnc2sc3c(=O)n(-c4ccc(Cl)cc4)cnc3c12 [28DY] | 50 to 150 nM
O=c1c2sc3nccc(NC4CC4)c3c2ncn1-c1ccncc1 [28ED] | 150 to 1000 nM
C=CCNc1ncnc2sc3c(=O)n(-c4ccc(OC)c(F)c4)cnc3c12 [95BN] | 50 to 150 nM
Cc1ccc(-n2cnc3c(sc4ncnc(NCC5CCCO5)c43)c2=O)cc1 (centres unmarked) [95FQ] | 150 to 1000 nM
Cc1ccc(-n2cnc3c(sc4cnnc(N(C)C)c43)c2=O)cc1 [167B] | 50 to 150 nM
Cc1ccc(-n2cnc3c(sc4ncnc(NCC5CC5)c43)c2=O)cc1 [95DP] | 50 to 150 nM
O=c1c2sc3nccc(NCCCCO)c3c2ncn1-c1ccc(Cl)cc1 [28GE] | < 50 nM
O=c1c2sc3nccc(N4CCC[C@H]4CO)c3c2ncn1-c1ccc(Cl)cc1 [28GM] | > 1000 nM
CN(C)c1cccc2sc3c(=O)n(-c4cccc(Cl)c4Cl)cnc3c12 [103I] | > 1000 nM
CCc1ccc(-n2cnc3c(sc4nccc(N(C)CC)c43)c2=O)cc1 [28BS] | < 50 nM
CSCCNc1ncnc2sc3c(=O)n(-c4ccc(C)cc4)cnc3c12 [95FR] | < 50 nM
CNc1ccnc2sc3c(=O)n(-c4cccc(Br)c4)cnc3c12 [28CS] | 50 to 150 nM
C=CCNc1ncnc2sc3c(=O)n(-c4ccc(Br)cc4)cnc3c12 [95BO] | < 50 nM
O=c1c2sc3nccc(N4CCCC4)c3c2ncn1-c1ccc(F)cc1 [28GW] | 150 to 1000 nM
O=c1c2sc3nccc(NC4CC4)c3c2ncn1-c1ccc2occc2c1 [28BI] | < 50 nM
CCc1ncnc2sc3c(=O)n(-c4ccc(Cl)cc4)cnc3c12 [compound 202] | < 50 nM

same assay, conditions: against Quisqualate 1 μM (EC80), FLIPR calcium mobilization, read-out: mGluR1 IC50

Structure (SMILES) | IC50
O=c1c2sc3nccc(NCCCCO)c3c2ncn1-c1ccc(Cl)cc1 [28GE] | 0.28 nM
C=CCNc1ncnc2sc3c(=O)n(-c4ccc(Br)cc4)cnc3c12 [95BO] | 1.54 nM

same assay, conditions: against Quisqualate 1 μM (EC80), class symbols, read-out: mGIuR 1 IC50

Structure (SMILES) | IC50
CS(=O)(=O)N1CCN(c2ccnc3sc4c(=O)n(C5CCCCC5)cnc4c23)CC1 [compound 63] | 150 to 1000 nM
COc1ccc(-c2c(C(C)=O)c(C)nc3sc4c(=O)n(-c5ccc(Cl)cc5)cnc4c23)cc1 [P-11] | 150 to 1000 nM
COc1ccc(-n2c(C(F)(F)F)nc3c(sc4nccc(N(C)C)c43)c2=O)cc1 [117B] | 150 to 1000 nM
O=c1c2sc3nccc(-n4cccn4)c3c2ncn1C1CCCCC1 [30B] | > 1000 nM
Cc1ccc(-n2c(C)nc3c(sc4nccc(NC5CC5)c43)c2=O)cc1 [113J] | 150 to 1000 nM
CN(C)c1c(-c2ccc(F)cc2)cnc2sc3c(=O)n(C4CCCCC4)cnc3c12 [47B] | > 1000 nM
Cc1ccc(-n2c(C)nc3c(sc4nccc(N(C)C)c43)c2=O)cc1 [113A] | < 50 nM
CN1CCN(c2ccnc3sc4c(=O)n(C5CCCCC5)cnc4c23)CC1 [61A] | > 1000 nM
CC(=O)Nc1ccc(-n2cnc3c(sc4nccc(N(C)C)c43)c2=O)cc1 [7AL] | > 1000 nM
Cc1ccc(-n2c(C)nc3c(sc4nccc(NCC(F)(F)F)c43)c2=O)cc1 [113L] | 150 to 1000 nM
CN(C)c1ccnc2sc3c(=O)n(CC4CC4)cnc3c12 [15B] | 150 to 1000 nM
Cc1ccc(-n2cnc3c(sc4nccc(N(C)C)c43)c2=O)nc1 [7DE] | < 50 nM
COc1ccnc2sc3c(=O)n(-c4ccc5scnc5c4)cnc3c12 [25D] | 150 to 1000 nM
COc1cc(-n2cnc3c(sc4nccc(N(C)C)c43)c2=O)ccc1Br [7DT] | 150 to 1000 nM
CN(C)c1ccnc2sc3c(=O)[nH]cnc3c12 [7E] | > 1000 nM
CCNc1ccnc2sc3c(=O)n(-c4ccc(C)cc4)cnc3c12 [131D] | < 50 nM
CN(C)c1ccnc2sc3c(=O)n(Cc4cccs4)cnc3c12 [15I] | 150 to 1000 nM

Structure (SMILES) | IC50
O=c1c2sc3nccc(N4CCCC4)c3c2ncn1C1CCCCC1 [28A] | > 1000 nM
Cc1ccc(-n2cnc3c(sc4cccc(N(C)C)c43)c2=O)cc1 [103D] | 50 to 150 nM
Cc1ccc(-n2cnc3c(sc4nccc(N(C)N)c43)c2=O)cc1 [28AE] | < 50 nM
CSc1ccc(-n2cnc3c(sc4nccc(N(C)C)c43)c2=O)cc1 [7CQ] | < 50 nM
CCNc1c(C#N)cnc2sc3c(=O)n(C4CCCCC4)cnc3c12 [compound 50] | 150 to 1000 nM
CNc1ccc(-n2cnc3c(sc4nccc(N(C)C)c43)c2=O)cc1 [7CF] | < 50 nM
CCNc1ncnc2sc3c(=O)n(-c4ccc(OC(F)(F)F)cc4)cnc3c12 [95V] | 150 to 1000 nM
CNc1ccnc2sc3c(=O)n(-c4ccc5c(c4)OCO5)cnc3c12 [7CB] | < 50 nM
CN(C)c1ccnc2sc3c(=O)n(Cc4cccc(Cl)c4)cnc3c12 [7R] | 150 to 1000 nM
Cc1ccc(-n2cnc3c(sc4nc(N5CCN(C)CC5)cc(N(C)C)c43)c2=O)cc1 [59A] | > 1000 nM
Cc1nn(C)c(C)c1-n1cnc2c(sc3nccc(N(C)C)c32)c1=O [15AC] | > 1000 nM
CNc1ccnc2sc3c(=O)n(-c4ccc5ncsc5c4)cnc3c12 [7BZ] | < 50 nM
CN(C)c1cc[n+]([O-])c2sc3c(=O)n(-c4ccc(Cl)cc4)cnc3c12 [12B] | 50 to 150 nM
O=c1c2sc3nccc(N4CC[C@@H](O)C4)c3c2ncn1C1CCCCC1 [28M] | > 1000 nM
O=c1c2sc3nccc(NCc4ccccc4)c3c2ncn1C1CCCCC1 [72E] | > 1000 nM
O=c1c2sc3nccc(N4CCN(CC5CC5)CC4)c3c2ncn1C1CCCCC1 [61B] | > 1000 nM
CN(C)c1ccnc2sc3c(=O)n(CC4CCCO4)cnc3c12 (centres unmarked) [15F] | 150 to 1000 nM
